The subject of the assay is B6C3F1 mice, ip Sarcoma M5076, median survival T/C. The experiment in a line: NCI In Vivo Anticancer Drug Screen. Data for tumor model Sarcoma M5076 (intraperitoneal) in B6C3F1 mice. The settings on record: endpoint: median survival time, higher = longer survival. In a few lines:
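Mice carrying the transplanted tumour received compound treatment. Survival was recorded, and each value is the treated-group measurement divided by that of the vehicle-dosed control group.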

[1] abbreviates: dose: 100.0 mg/kg/injection, schedule: Q04DX004 (ip), vehicle: saline with Tween-80.
Where [2] appears, read: dose: 200.0 mg/kg/injection, schedule: Q04DX004 (ip), vehicle: saline with Tween-80.
The mark [3] stands for this setting: dose: 75.0 mg/kg/injection, schedule: Q04DX004 (ip), vehicle: saline with Tween-80.
The mark [4] stands for this setting: dose: 150.0 mg/kg/injection, schedule: Q04DX004 (ip), vehicle: saline with Tween-80.
The mark [5] stands for this setting: dose: 300.0 mg/kg/injection, schedule: Q04DX004 (ip), vehicle: saline with Tween-80.
[6] abbreviates: dose: 600.0 mg/kg/injection, schedule: Q04DX004 (ip), vehicle: saline with Tween-80.
Where [7] appears, read: dose: 50.0 mg/kg/injection, schedule: Q04DX004 (ip), vehicle: saline with Tween-80.
Where [8] appears, read: dose: 400.0 mg/kg/injection, schedule: Q04DX004 (ip), vehicle: saline with Tween-80.
[9] abbreviates: dose: 800.0 mg/kg/injection, schedule: Q04DX004 (ip), vehicle: saline with Tween-80.
The mark [10] stands for this setting: dose: 25.0 mg/kg/injection, schedule: Q04DX004 (ip), vehicle: saline with Tween-80.
[11] abbreviates: dose: 6.25 mg/kg/injection, schedule: Q04DX004 (ip), vehicle: saline with Tween-80.
[12] abbreviates: dose: 12.5 mg/kg/injection, schedule: Q04DX004 (ip), vehicle: saline with Tween-80.
[13] abbreviates: dose: 37.5 mg/kg/injection, schedule: Q04DX004 (ip), vehicle: saline with Tween-80.

Each structure is given as a SMILES string. Where “and” joins values, the source holds several entries; their conditions need not be identical. Equal values may be shown once. Inconclusive results and toxic doses are left out.

As for `CC(C)(C[NH-])C[NH-].[Cl][Pt+2][Cl]`, the T/C (dose: 0.25 mg/kg/injection, schedule: Q04DX004 (ip), vehicle: water) is 116 % of control; the T/C (dose: 1.0 mg/kg/injection, schedule: Q04DX004 (ip), vehicle: water) was 157 % of control and 174 % of control; the T/C (dose: 2.0 mg/kg/injection, schedule: Q04DX004 (ip), vehicle: water) is 181 % of control and 198 % of control; the T/C (dose: 4.0 mg/kg/injection, schedule: Q04DX004 (ip), vehicle: water) is 90 % of control and 241 % of control.

As to `CCN(CC)CCn1[nH]c2c3ccc(=O)cc3sc3c(NCCN)ccc1c32`, the T/C is, setting by setting: (dose: 3.12 mg/kg/injection, schedule: Q04DX004 (ip), vehicle: water) 194 % of control; (dose: 6.25 mg/kg/injection, schedule: Q04DX004 (ip), vehicle: water) 155 % of control and 163 % of control and 200 % of control; (dose: 12.5 mg/kg/injection, schedule: Q04DX004 (ip), vehicle: water) 178 % of control and 201 % of control and 239 % of control.

Take `CN(C)CCN1C(=O)c2cccc3cc(N)cc(c23)C1=O`: the T/C is, setting by setting: (dose: 12.96 mg/kg/injection, schedule: Q04DX004 (ip), vehicle: acid diluted with saline) 108 % of control and 117 % of control; (dose: 21.6 mg/kg/injection, schedule: Q04DX004 (ip), vehicle: acid diluted with saline) 159 % of control; (dose: 36.0 mg/kg/injection, schedule: Q04DX004 (ip), vehicle: acid diluted with saline) 158 % of control.

As for `COc1cc(C(C)c2cc3c(cc2OCCO)OCO3)cc(OC)c1OC` (stereo not drawn), the T/C was 108 % of control under setting [1] and 104 % of control under setting [2].

As for `C=COC(=O)C(Cc1ccccc1)NC(=O)OCc1ccccc1` (stereo not drawn), the T/C by setting is: under setting [3], 91 % of control; under setting [4], 111 % of control; under setting [5], 113 % of control; under setting [6], 91 % of control; (dose: 1200.0 mg/kg/injection, schedule: Q04DX004 (ip), vehicle: saline with Tween-80) 88 % of control.

As to `Cc1cc(=O)n(Cc2ccco2)c(=S)[nH]1`, the T/C is 105 % of control under setting [7]; 105 % of control under setting [1]; 100 % of control under setting [2]; 89 % of control under setting [8]; 106 % of control under setting [9].

For the compound `Oc1c(Cl)cc(Cl)cc1C=NCCSc1ccc(Cl)cc1`, the T/C is, setting by setting: (dose: 50.0 mg/kg/injection, schedule: Q04DX004 (ip), vehicle: Klucel (hydroxypropylcellulose) (HPC)) 97 % of control and 121 % of control; (dose: 100.0 mg/kg/injection, schedule: Q04DX004 (ip), vehicle: Klucel (hydroxypropylcellulose) (HPC)) 98 % of control and 117 % of control; (dose: 200.0 mg/kg/injection, schedule: Q04DX004 (ip), vehicle: Klucel (hydroxypropylcellulose) (HPC)) 97 % of control and 110 % of control; (dose: 400.0 mg/kg/injection, schedule: Q04DX004 (ip), vehicle: Klucel (hydroxypropylcellulose) (HPC)) 94 % of control and 112 % of control; (dose: 800.0 mg/kg/injection, schedule: Q04DX004 (ip), vehicle: Klucel (hydroxypropylcellulose) (HPC)) 100 % of control.

Regarding `NC(=O)CCC(N)C(=O)O` (stereo not drawn), the T/C by setting is: (dose: 3.12 mg/kg/injection, schedule: Q04DX004 (ip), vehicle: saline) 100 % of control; (dose: 6.25 mg/kg/injection, schedule: Q04DX004 (ip), vehicle: saline) 104 % of control and 105 % of control; (dose: 12.5 mg/kg/injection, schedule: Q04DX004 (ip), vehicle: saline) 97 % of control and 99 % of control; (dose: 25.0 mg/kg/injection, schedule: Q04DX004 (ip), vehicle: saline) 98 % of control and 108 % of control; (dose: 50.0 mg/kg/injection, schedule: Q04DX004 (ip), vehicle: saline) 105 % of control and 111 % of control; (dose: 100.0 mg/kg/injection, schedule: Q04DX004 (ip), vehicle: saline) 103 % of control and 124 % of control.

Consider `O=Cc1ccc(O)c(O)c1`, for which the T/C reads like this: under setting [7], 100 % of control; under setting [1], 96 % of control; under setting [2], 104 % of control; under setting [8], 104 % of control.

For the compound `C/C([O-])=c1\c(C)nn2ccc[n+]12`, the T/C under setting [10] is 100 % of control, the T/C under setting [7] is 106 % of control, the T/C under setting [1] is 103 % of control and the T/C under setting [2] was 94 % of control.

Take `Clc1ccccc1C(Nc1cnccn1)Nc1cnccn1`: the T/C runs as follows: under setting [7], 105 % of control and 112 % of control; under setting [1], 105 % of control; under setting [2], 103 % of control and 109 % of control; under setting [8], 110 % of control and 114 % of control; under setting [9], 100 % of control.

For `O=c1ncccn1[C@@H]1O[C@H](CO)[C@H](O)C1O` (stereo partly drawn), the T/C was 99 % of control (dose: 25.0 mg/kg/injection, schedule: Q01DX009 (ip), vehicle: saline); 103 % of control (dose: 50.0 mg/kg/injection, schedule: Q01DX009 (ip), vehicle: saline); 104 % of control (dose: 100.0 mg/kg/injection, schedule: Q01DX009 (ip), vehicle: saline); 92 % of control (dose: 125.0 mg/kg/injection, schedule: Q04DX004 (ip), vehicle: saline); 110 % of control (dose: 200.0 mg/kg/injection, schedule: Q01DX009 (ip), vehicle: saline); 94 % of control (dose: 250.0 mg/kg/injection, schedule: Q04DX004 (ip), vehicle: saline). Besides, the T/C is 97 % of control (dose: 400.0 mg/kg/injection, schedule: Q01DX009 (ip), vehicle: saline); 89 % of control (dose: 500.0 mg/kg/injection, schedule: Q04DX004 (ip), vehicle: saline); 92 % of control (dose: 1000.0 mg/kg/injection, schedule: Q04DX004 (ip), vehicle: saline).

As to `O=C1c2c(O)cccc2-c2nn(CCNCCO)c3ccc(NCCNCCO)c1c23`, the T/C runs as follows: (dose: 2.75 mg/kg/injection, schedule: Q04DX004 (ip), vehicle: water) 169 % of control; (dose: 5.5 mg/kg/injection, schedule: Q04DX004 (ip), vehicle: water) 233 % of control and 263 % of control; (dose: 11.0 mg/kg/injection, schedule: Q04DX004 (ip), vehicle: water) 243 % of control; (dose: 22.0 mg/kg/injection, schedule: Q04DX004 (ip), vehicle: water) 109 % of control.

In the case of `O=C1C=CC(=CC=C2C=CN(CCCCCCCCCCCO)C=C2)C=C1`, the T/C is, setting by setting: under setting [11], 102 % of control; under setting [12], 109 % of control; under setting [10], 102 % of control; under setting [7], 111 % of control.

In the case of `C=CCNc1nc2c(s1)c(C)c(O)c1ccccc12`, the T/C under setting [13] was 98 % of control and the T/C under setting [3] was 88 % of control.

On to `c1ccc2c(c1)oc1cc3c(cc12)ncc1cccn13`, for which the T/C reads like this: under setting [11], 95 % of control; under setting [12], 90 % of control; under setting [10], 91 % of control.

Consider `CNc1ncn(-c2c(C)cccc2C)c(=O)n1`, for which the T/C was 98 % of control (dose: 4.69 mg/kg/injection, schedule: Q04DX004 (ip), vehicle: saline with Tween-80); 109 % of control (dose: 9.38 mg/kg/injection, schedule: Q04DX004 (ip), vehicle: saline with Tween-80); 110 % of control (dose: 18.75 mg/kg/injection, schedule: Q04DX004 (ip), vehicle: saline with Tween-80); 109 % of control under setting [13]; 100 % of control and 105 % of control and 115 % of control under setting [3]; 99 % of control under setting [4]. The T/C is 100 % of control under setting [5] and 99 % of control under setting [6].

With `CC(/C=C/C1OC(=O)C=CC1C)=C\C(C)C/C=C/C(C)=C/C(CO)C(=O)C(C)C(O)C(C)C/C(C)=C/C(=O)O` (stereo not drawn), the T/C runs as follows: (dose: 13.63 micrograms/kg/injection, schedule: Q04DX004 (ip), vehicle: other) 100 % of control; (dose: 27.25 micrograms/kg/injection, schedule: Q04DX004 (ip), vehicle: other) 107 % of control; (dose: 54.5 micrograms/kg/injection, schedule: Q04DX004 (ip), vehicle: other) 109 % of control; (dose: 109.0 micrograms/kg/injection, schedule: Q04DX004 (ip), vehicle: other) 113 % of control; (dose: 500.0 micrograms/kg/injection, schedule: Q04DX004 (ip), vehicle: other) 171 % of control; (dose: 1000.0 micrograms/kg/injection, schedule: Q04DX004 (ip), vehicle: other) 202 % of control. Besides, the T/C (dose: 2000.0 micrograms/kg/injection, schedule: Q04DX004 (ip), vehicle: other) is 192 % of control.

As to `Clc1nc2cc3c(cc2n2cccc12)oc1ccccc13`, the T/C under setting [10] is 93 % of control; the T/C under setting [7] is 95 % of control; the T/C under setting [1] is 94 % of control; the T/C under setting [2] was 86 % of control; the T/C under setting [8] is 86 % of control.

The record behind these values is PubChem BioAssay AID292 (DTP/NCI, 2004).
